From US20250304587A1, “WEE1 INHIBITOR, PREPARATION THEREFOR AND USE THEREOF” (JIANGSU TASLY DIYI PHARMACEUTICAL CO., LTD., priority 2022, published 2025) come the findings set out here.

In assay [1] the target is Wee1 protein (Homo sapiens (Human), UniProt P30291). As to the kind of experiment: TR-FRET binding of compound to Wee1 protein and Tracer 178. The following applies: Tracer 178, read-out: IC50, inhibitory activity against Wee1 kinase. Here is the method: First, solutions of the compounds in different concentration gradients were prepared. The compounds were dissolved in DMSO and the compounds were diluted 4 folds with a total of 10 dose points and 2 parallel replicates for each concentration.
Chain of Wee1 protein (P30291 whole entry): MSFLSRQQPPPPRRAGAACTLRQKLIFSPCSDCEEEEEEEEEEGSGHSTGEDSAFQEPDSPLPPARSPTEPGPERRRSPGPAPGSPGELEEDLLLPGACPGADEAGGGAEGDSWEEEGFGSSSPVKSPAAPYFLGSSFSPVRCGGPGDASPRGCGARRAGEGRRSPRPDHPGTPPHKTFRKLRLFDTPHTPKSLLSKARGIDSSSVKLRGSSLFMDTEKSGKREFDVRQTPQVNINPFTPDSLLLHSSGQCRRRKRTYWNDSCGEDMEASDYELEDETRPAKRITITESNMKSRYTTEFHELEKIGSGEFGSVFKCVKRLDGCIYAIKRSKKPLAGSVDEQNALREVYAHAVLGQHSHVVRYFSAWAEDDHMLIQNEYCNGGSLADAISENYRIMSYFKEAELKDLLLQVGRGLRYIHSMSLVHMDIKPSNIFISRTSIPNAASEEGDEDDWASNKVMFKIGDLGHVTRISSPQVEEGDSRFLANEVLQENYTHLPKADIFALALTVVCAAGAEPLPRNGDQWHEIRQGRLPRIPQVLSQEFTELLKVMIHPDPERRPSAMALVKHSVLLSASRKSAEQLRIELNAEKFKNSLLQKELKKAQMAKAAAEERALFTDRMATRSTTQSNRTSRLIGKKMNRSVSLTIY
The IC50 for inhibition of enzyme activity by the compounds was then calculated using GraphPad Prism 6 and fitted with a log (inhibitor) vs. response-Variable slope mode. The fitting equation was: Y=Bottom+(Top−Bottom)/(1+10^((Log IC50−X)*HillSlope)), where Y represents the percentage of residual enzyme activity known and X represents the known concentration of compound after the logarithm.
A general note: TR-FRET usually uses a lanthanide donor and a delayed reading to cut background.

Assay [2] relates to OVCAR-3 cells. The experiment in a line: Cell Titer-Glo anti-proliferation, OVCAR-3 cells. It is filed as cell-based. The conditions noted are these: 3 days, read-out: Anti-proliferative activity OVCAR-3 (IC50 class). The protocol: (§1) A. Evaluation of the Anti-Proliferative Effect of Compounds on BxPC3, HT-29 and OVCAR-3 Cells by the Cell Titer-Glo Method
(§2) Compound solutions of different concentration gradients were prepared. […] The cell growth group without compound was used as a positive control (maximum signal control) and the medium was used as a negative control (minimum signal control), while ensuring that the final level of DMSO in each reaction well was 0.2%. After removing the medium from the 384-well plate, 25 μl of the configured compound at different concentrations was transferred into the well plate and the compound and cells were incubated in the cell incubator at 37° C. with 5% CO2 for 3 days.
(§3) The 384-well plates were removed from the cell incubator and allowed to equilibrate for 1 h to room temperature. 25 μl of Cell Titer-Glo assay was added to each well, lysed on a shaker for 2 min and then read out (Luminescence) using a BMG PHERAStar after 10 min incubation. Calculate the inhibition rate from the luminescence signal.
(§4) to calculate the rate of inhibition of the cells by different concentrations of the compounds. The IC50 of the compound on cell activity inhibition was calculated by fitting a log(inhibitor) vs. response-Variable slope model to GraphPad Prism 6. The fitted equation was: Y=Bottom+(Top-Bottom)/(1+10^((Log IC50−X)*HillSlope)), where Y represents the rate of inhibition and X represents the concentration of the known compound after Log.

Assay [3] concerns BxPC3 cells. As to the kind of experiment: Cell Titer-Glo anti-proliferation, BxPC3 cells. It is filed as cell-based, human. The following applies: 3 days, read-out: Anti-proliferative activity BxPC3 (IC50 class). The protocol:
as §1, §2, §3, §4

The subject of assay [4] is HT-29 cells. The experiment in a line: Cell Titer-Glo anti-proliferation, HT-29 cells. It is filed as cell-based, human. The following applies: 3 days, read-out: Anti-proliferative activity HT-29 (IC50 class). Here is the method: as §1, §2, §3, §4

Structures are written as SMILES.

Usually IC50 stands for the concentration needed to halve the response being measured. Consider `C=CCn1c(=O)c2cnc(Nc3ccc(N4CCN(C)CC4)c(C)c3)nc2n1-c1ccc2c(n1)[C@@](C)(O)C1(CC2)CC1` (single isomer, unassigned) [Compound 23a], for which the concentration for half-maximal inhibition (IC50) was ≤ 0.005 µM in assay [1], 0.1 to 1 µM in assay [2], 0.1 to 1 µM in assay [3] and 0.1 to 1 µM in assay [4].
On to `C=CCn1c(=O)c2cnc(Nc3ccc(N4CC5CC(C4)N5CC)cc3)nc2n1-c1ccc2c(n1)[C@](C)(O)C1(CC2)CC1` (single isomer, unassigned) [Compound 51a], for which the IC50 in assay [1] was ≤ 0.005 µM; in assay [2], 0.1 to 1 µM; in assay [3], 0.1 to 1 µM; in assay [4], 0.1 to 1 µM.
On to `C=CCn1c(=O)c2cnc(Nc3ccc(N4CCN(C)CC4)cc3)nc2n1-c1ccc2c(n1)N(CC)C(=O)C21CCC1` [Compound 2], for which the IC50 in assay [1] was in the range of 0.01 to 0.1 µM; in assay [3], 2 to 5 µM; in assay [4], 1 to 2 µM.
For `C=CCn1c(=O)c2cnc(Nc3ccc(N4CCN(C)CC4)cc3)nc2n1-c1ccc2c(c1)N(CC)C(=O)C21CC1` [Compound 1] the same measures were 0.01 to 0.1 µM, 5 to 10 µM and 1 to 2 µM.
Turning to `C=CCn1c(=O)c2cnc(Nc3ccc(N4CC5CC(C4)N5C(C)C)cc3)nc2n1-c1ccc2c(n1)[C@](C)(O)C1(CC2)CC1` (single isomer, unassigned) [Compound 35a], the IC50 in assay [2], in assay [3] and in assay [4] was 0.1 to 1 µM each time.
In the case of `C=CCn1c(=O)c2cnc(Nc3ccc(N4CCN(C)CC4)c(C)c3)nc2n1-c1ccc2c(n1)C(C)(O)C1(CC1)C2` (racemic) [Compound 10], the IC50 in assay [2] was in the range of 0.1 to 1 µM; in assay [3], 2 to 5 µM; in assay [4] it was 1 to 2 µM.
For `C=CCn1c(=O)c2cnc(Nc3ccc(N4CCN(C)CC4)c(CO)c3)nc2n1-c1ccc2c(n1)C(C)(O)C1(CC1)C2` (racemic) [Compound 19] the same measures were 2 to 5 µM, 2 to 5 µM and 2 to 5 µM.
As to `C=CCn1c(=O)c2cnc(Nc3ccc(N4CC5CCC(C4)N5C)cc3)nc2n1-c1ccc2c(n1)C(O)(CC)C1(CC1)C2` (racemic) [Compound 25], the half-inhibitory concentration (IC50) fell in the range of 0.1 to 1 µM in assay [2], 1 to 2 µM in assay [3] and 1 to 2 µM in assay [4].
Regarding `C=CCn1c(=O)c2cnc(Nc3ccc(N4CC5CC(C4)N5C)c(OC)c3)nc2n1-c1ccc2c(n1)C(O)C1(CC2)CC1` (racemic) [Compound 49], the concentration for half-maximal inhibition (IC50) in assay [2], in assay [3] and in assay [4] was 2 to 5 µM each time.
Consider `C=CCn1c(=O)c2cnc(Nc3ccc(N4CCN(C)CC4)cc3)nc2n1-c1ccc2c(n1)C(O)(C(F)(F)F)C1(CC2)CC1` (centres unmarked) [Compound 53b], for which the results for the IC50 in assay [2], in assay [3] and in assay [4] were 1 to 2 µM, 0.1 to 1 µM and 0.1 to 1 µM, respectively.
Consider `C=CCn1c(=O)c2cnc(Nc3ccc(N4CCC(N(C)C)C(F)C4)cc3)nc2n1-c1ccc2c(n1)C(C)(O)C1(CC2)CC1` (single isomer, unassigned) [Compound 60b], for which the IC50 in assay [2], in assay [3] and in assay [4] was 0.1 to 1 µM each time.
With `C=CCn1c(=O)c2cnc(Nc3ccc(N4CC5CC(C4)N5C(C)C)cc3)nc2n1-c1ccc2c(n1)[C@@](C)(O)C1(CC2)CC1` (single isomer, unassigned) [Compound 35b], the half-inhibitory concentration (IC50) in assay [2], in assay [3] and in assay [4] was 0.1 to 1 µM each time.
Regarding `C=CCn1c(=O)c2cnc(Nc3ccc(N4CC5CN(C)CC5C4)cc3)nc2n1-c1ccc2c(n1)C(O)C1(CC2)CC1` (single isomer, unassigned) [Compound 63a], the IC50 in assay [2], in assay [3] and in assay [4] was 0.1 to 1 µM in each case.
Take `C=CCn1c(=O)c2cnc(Nc3ccc(N4CCC(N(C)C)CC4)c(C)c3)nc2n1-c1ccc2c(n1)C(C)(O)C1(CC2)CC1` (centres unmarked) [Compound 52b]: the 50% inhibitory concentration (IC50) in assay [2], in assay [3] and in assay [4] was 0.1 to 1 µM each time.
